The subject of series [1] is mix of planktonic bacteria (E. Coli ATCC 11229, S. aureus ATCC 6538, Enterobacter aerogenes ATCC 130489, P. aeruginosa ATCC 13388). The series is described as follows: Quantitative suspension test (modified EN 1040) on planktonic bacteria, sequential CDA then biocide. The settings on record: 2.5 ppm BCDMH 3 h, 310 nM CDA 1 h before; TOC=30 ppm, 30° C. It counts as cell-based. As to the method: 310 nM CDA and bromine-containing biocide were introduced into a mix of planktonic bacteria in a medium containing different levels of organic loading (TOC 10-3000 ppm). High organic loading tends to reduce the efficacy of antimicrobial agents in industrial applications and, therefore, the test was aimed to mimic these conditions. The test was performed in accordance with the modified European standard EN 1040: 2005: “Chemical disinfectants and antiseptics—Quantitative suspension test for the evaluation of basic bactericidal activity of chemical disinfectants and antiseptics—Tests method and requirements (phase 1)”. 19 ml of phosphate buffer solution (pH=7) including tryptone in order to obtain a solution of TOC=30 ppm, and 1 ml of the tested bacteria suspension (consisted of E. Coli (ATCC 11229), S. aureus (ATCC 6538), Enterobacter aerogenes (ATCC 130489) and P. aeruginosa (ATCC 13388)), at a concentration of 1.5×10^8-5×10^8 CFU/ml, were placed into a container of suitable capacity. A stopwatch was started immediately and the container was placed in a water bath controlled at 30° C.
The activity was determined with 2.5 ppm BCDMH alone for a contact time of 3 hours. […] Countable plates were counted and the number of colony-forming units was determined, for each plate.

The subject of series [2] is Pseudomonas aeruginosa biofilm. The series is described as follows: Sequential application of CDA then biocide on 3-day-old biofilm grown in CDC biofilm reactor (single tube method). Format: cell-based. The settings on record: for effect on biofilm of biocides applied alone, compared with each other: Example 8, 5 ppm, 1 h (FIG. 17).
The subject of series [3] is biofilm formed by mixed bacteria (Staphylococcus aureus 6538, Bacillus mycoides 6462 and Pseudomonas aeruginosa 700888). As to the kind of experiment: Sequential application of CDA then biocide on mixed-bacteria biofilm grown in CDC biofilm reactor. It counts as cell-based.
The test system of series [4] is P. aeruginosa strain PA14 biofilm. As to the kind of experiment: Simultaneous application of CDA and biocide on 3-day biofilm in 24-well plates. It counts as cell-based, Pseudomonas aeruginosa. Particulars: for Log reduction vs. control: biocide alone / Enhancement / Log reduction vs. control: combination of the 310 nm CDA and biocide: biocide 10 ppm; for Enhancement: simultaneous 310 nm CDA; for Log reduction vs. control: combination of the 310 nm CDA and biocide: simultaneous application. On the procedure:
The effect of bromine-containing biocide in combination with CDA on pre-grown biofilms was studied. The experiment was carried out utilizing (A) the P. aeruginosa strain PA14 and (B) mixed bacterial species derived from environmental and industrial water.
Bacteria were cultured in EPRI medium supplemented with Hutners mineral solution and glucose (0.2%). Microorganisms were incubated at room temperature (22° C.), under aerobic conditions with shaking. The biofilm culture system used included polystyrene 24-well plates that were treated with protein to enhance attachment and growth of biofilm bacteria according to the method described in Davies D G, Marques C N, 2009, J Bacteriol 191:1393-1403.
Following inoculation with 1 mL bacterial culture, spent medium was removed and replaced with sterile medium every 24 hours for 3 days, and a final medium exchange was performed 3 hours prior to treatment. Additionally, the medium was exchanged prior to treatment in order to remove planktonic bacteria. Treatments consisted of 100 μL of 310 nM CDA and bromine-containing biocide, or bromine-containing biocide alone at concentrations used in commercial water treatment, water was used as a carrier, for a contact time determined by activity of each biocide and ranging from 1 hour to 24 hours, as detailed below for each of the tested biocides.
Following the treatment, the medium from each well was removed by pipet and 1 mL of DE neutralization broth was added in order to stop the treatment. Bacteria from each well were then removed by scraping the biofilm formed in the well with a sterile cell-scraper, and 1.0 mL of culture was transferred to chilled (4° C.) 9.0 mL DE neutralizing broth and homogenized for 15 seconds at 40,000 rpm on ice. Further dilutions were performed prior to enumeration (further neutralizing biocide activity). Recovery of bacteria were tested at different dilutions of biocide in water, in LB medium with thioglycolate and in DE neutralizing broth to ensure the active agent was properly neutralized. Viable bacteria were enumerated via the drop plate method. Each biocide was evaluated using 24-well plates with 8 wells each for the control cultures (Ctl) inoculated with P. aeruginosa but not treated, a CDA minus test (−CDA) treated with bromine-containing biocide only, and a CDA plus test treated with bromine-containing biocide and CDA (+CDA).

Series [5] is described as follows: Storage stability of biocide/CDA liquid concentrates (HPLC). It counts as physicochemical. As to the method:
22 mg of cis-2-decenoic acid (CiVentiChem, 96.72% purity) were charged into 50 ml flask, equipped with a stirrer 3.99 gr of C-103 (ICL, batch 640160147) were added, followed by 9.97 gr of PEG200 (Merck 8.07483.5000 Lot 56904983 451), 5.95 gr of DI water and 22 mg of BHT (Aldrich B1378-100G, BCBH9491V). The obtained solution was stirred till complete clarification; sonication at +30° C. is recommended if some particles are observed. Clear colorless solution of a total […] and 20:50:30:0.1:0.1 weight ratio of C103-PEG200-H2O-CDA-BHT was obtained.
The solution was tested to determine the stability of the biocide and CDA and under storage at 25° C. over a two-month period.
47.6 mg or cis-2-decenoic acid (CiVentiChem, 96.72% purity) were charged into 50 ml flask, equipped with a stirrer. 9.01 gr of Bronopol (ICL, batch 17101607) were added, followed by 18.03 gr of propylene glycol (Biolab 16200201 Lot 1007861), 3.0 gr of DI water and 31.2 mg of BHT (Aldrich B1378-100G, BCBH9491V). After stirring for several minutes, undissolved traces of BHT were filtered through filtering paper for BHT particle removal. Clear colorless solution of a total 30 gr and 30:60:10:0.158:0.1 weight ratio of Bronopol-PG-H2O-CDA-BHT was obtained.

The test system of the next series is P. aeruginosa biofilm. The series is described as follows: Simultaneous application of CDA salt form and biocide on 3-day biofilm, CDC biofilm reactor, pH 8-9. Format: cell-based, Pseudomonas aeruginosa. Particulars: 310 nM CDA, 1 h.
The nature of series [6]: Stepwise acidification of CDA sodium/lithium salt (pKa). It counts as physicochemical.

Entries after “also recorded” stand apart in the source; their conditions may differ. Where two headings read alike, the source gives them in different places.

As for `CC1(C)C(=O)N(Cl)C(=O)N1Br` [BCDMH, 1-bromo-3-chloro-5,5-dimethylhydantoin], the “enhancement by CDA and biocide in sequence compared with biocide without CDA” value in series [1] was 2 log units. The “enhancement by combined treatment relative to biocide alone” value in series [2] (10 ppm BCDMH, 31 nM commercial CDA (FIG. 13)) is recorded as 4.5 log units; in series [2] (10 ppm BCDMH, 310 nM commercial CDA (FIG. 13)), 4.5 log units; in series [2] (10 ppm BCDMH, 3100 nM commercial CDA (FIG. 13)) it was 5.5 log units; in series [2] (text of Example 2, biocide 10 ppm, 310 nM commercial CDA (97% by GC)), around 2 log units; in series [2] (text of Example 2, biocide 10 ppm, 310 nM crude CDA (90% by GC)), around 2 log units; in series [3] (biocide 5 ppm, 310 nM commercial CDA, mixed bacteria biofilm (FIG. 12A)) it was around 2.5 log units. Further, the “enhancement by combined treatment relative to biocide alone” value in series [3] (biocide 10 ppm, 310 nM commercial CDA, mixed bacteria biofilm (FIG. 12B)) is around 5.5 log units. Also, the “effect of 5.0 ppm biocide with 310 nM CDA relative to 10 ppm biocide without CDA” value in series [2] (Example 3, sequential, FIG. 14) is “comparable”. In addition, the “reduction by biocide/CDA combination versus the solely applied biocide” value in series [2] (Example 8, 5 ppm biocide/310 nM CDA, sequential (FIG. 17)) amounted to 4.5 log units. In addition, the “effect on biofilm of biocides applied alone, compared with each other” value in series [2] is reported as “comparable effect”. The “Log reduction vs. control: biocide alone” value in series [2] (biocide 10 ppm, 1 h contact time, 3-day-old biofilm) is reported as around 3.5 log units; in series [3] (biocide 10 ppm, 1 h, biofilm formed by mixed bacteria) it was around 2 log units; in series [4] (2 hours contact time), around 4 log units. For the same compound, the Enhancement in series [2] (biocide 10 ppm, 310 nM CDA combination vs biocide alone) is given as around 2.5 log units; in series [3] (biocide 10 ppm, 310 nM CDA combination vs biocide alone, mixed bacteria biofilm) it was around 5.5 log units; in series [4] (2 hours contact time), around 2 log units. The “Log reduction vs. control: combination of the 310 nM CDA and biocide” value in series [2] (biocide 10 ppm, 1 h CDA 310 nM then 1 h biocide) is reported as around 6 log units; in series [3] (biocide 10 ppm, 1 h CDA 310 nM then 1 h biocide, mixed bacteria biofilm), around 7.5 log units. The “biofilm reduction by biocide alone” value was around 3 log units in series [2] (text of Example 2, biocide 10 ppm, 1 h) and “reduces the biofilm” in series [3] (biocide 5 ppm or 10 ppm, mixed bacteria biofilm). Also, in series [4] (10 ppm BCDMH, 310 nM CDA, one hour (FIG. 4)), the “log reduction of biocide and CDA compared with biocide alone” value is 2. Besides, the “Log reduction vs. control: combination of the 310 nm CDA and biocide” value in series [4] (2 hours contact time) is around 6 log units.
For the compound `O=[N+]([O-])C(Br)(CO)CO` [Bronopol, 2-bromo-2-nitro-1,3-propanediol], the “reduction of number of bacteria by addition of CDA to the biocide treatment” value in series [4] (10 ppm bronopol, 310 nM CDA, two hours of treatment (FIG. 2A)) is “more than an order of magnitude”. In series [4] (24 hours contact time), the “Log reduction vs. control: biocide alone” value is given as around 6 log units; the Enhancement is recorded as around 3 log units; the “Log reduction vs. control: combination of the 310 nm CDA and biocide” value is given as “effective in eradicating P. aeruginosa biofilm; also recorded: biofilm eradication”. For the same compound, the “Log reduction vs. control: biocide alone” value in series [4] (24 hours contact time, listed as bronopol) is “very effective in reducing biofilm”. Also, the “degradation under storage (HPLC)” value in series [5] is listed as “Neither bronopol nor CDA underwent degradation”.
One may read the pKa as the negative logarithm of the acid dissociation constant. As for `CCCCCCC/C=C\C(=O)O` [CDA, cis-2-decenoic acid], the “effect of CDA alone on biofilm compared to the control” value is on record as “no useful effect” in series [2]; “no useful effect” in series [2] (310 nM CDA, commercial (97%) or crude (90%), 1 h); “no useful effect” in the series with P. aeruginosa biofilm; “no useful effect” in series [3] (310 nM commercial CDA, mixed bacteria biofilm). Moreover, the “biocidal action of CDA alone (reduction of bacterial counts)” value in series [2] (CDA on its own, broad concentration range, even >3000 nM) is “failed to demonstrate biocidal action”. Also, the “degradation under storage (HPLC)” value in series [5] (Example 6 concentrate C103-PEG200-H2O-CDA-BHT 20:50:30:0.1:0.1, 25° C., two months) was “Neither DBNPA nor CDA underwent degradation”; in series [5] (Example 7 concentrate Bronopol-PG-H2O-CDA-BHT 30:60:10:0.158:0.1, 25° C., two months), “Neither bronopol nor CDA underwent degradation”. For the same compound, the pKa in series [6] fell in the range of 6.5 to 7.5.
Turning to `OCl` [sodium hypochlorite, Sodium hypochlorite, reference compound], in series [2], the “reduction by biocide/CDA combination versus the solely applied biocide” value is listed as 2 log units and the “effect on biofilm of biocides applied alone, compared with each other” value is recorded as “comparable effect”.

These data come from US12557812B2, “Method and composition for water treatment” (BROMINE COMPOUNDS LTD., priority 2019, dated 2026).
